Measured values from patent US12606773B2, “Ionizable cationic lipids” (Akagera Medicines, Inc., priority 2020, dated 2026).

What was measured:
[1] = LNP particle size and polydispersity (ZetaSizer); type: physicochemical; details: for Particle Size (nm): mCherry mRNA LNP, 50 mol % ICL, N/P 5, DSPC 10, cholesterol 38.5, PEG-DMG 1.5 mol %; for Particle Size (nm) Post-Freeze/Thaw / Polydispersity Index PDI: same LNPs; for Particle Size (nm) Post-Freeze/Thaw: Table 4, post freeze/thaw
Description: (§1) • 5. The number of wells used on each plate was counted and 4 was added to this number. For plate B, PBS was prepared with Ribogreen diluted 1:100. For example, for 40 wells, 44 was used as the number. 44×60 μL=2.64 mL Ribogreen solution needed, so that would be 2.61 mL PBS with 26.4 μL Ribogreen. • 6. For plate C, 2.61 mL Dissociation buffer and 26.4 uL Ribogreen was pipetted. • 7. Using a repeater pipette set for 60 μL, PBS+RiboGreen was added to each well on plate B and 60 μL Dissociation Buffer+Ribogreen to plate C. Both plates B and C were mixed on an orbital mixer (120 rpm) for 1 min. Plate B was placed in the dark for 15 min. Plate C was incubated at 37° C. in the dark for 10 min, followed by 5 min at RT. • 8. Both plates were read one after the other, using Ex. 465, Em. 530 nm • 9. Using the standard curve, the slope and intercept were calculated and by extrapolation the mRNA concentrations of the samples on plate B & C were calculated (average and std.dev) • 10. Percent encapsulation efficiency (% EE) by [mRNA] plate B/[mRNA] plate C×100 was calculated • 11. Total [mRNA] by taking [mRNA] plate C×dilution factor was calculated. B. LNP Particle Size • 1. […] C. LNP Zeta Potential • 1.

[2] = mRNA encapsulation efficiency by Ribogreen fluorescent binding dye; type: physicochemical; details: same LNPs; for Encapsulation Efficiency (%): Table 4; for % Encapsulation ± SD: Table 3
Description: A. mRNA Concentration and Relative Encapsulation Efficiency Determination by Fluorescent Binding Dye
• Materials: Ribogreen reagent (Thermo #11491), 3×96-well plates with lids, PBS, dissociation buffer (PBS with 10% DMSO and 1% (wt/wt) Zwittergent 3-14 (Sigma-Aldrich #693017), mRNA, general pipette tips & repeater pipette tips. • 1. 5 mL of 2 μg/mL mRNA stock were prepared in DPBS or PBS • 2. Diluted standards were prepared as follows in single wells in a 96-well plate (Plate A);
• 3. Using different wells in Plate A, samples were diluted to be within the standard curve, you'll need one well per sample. For example, if the approximate mRNA concentration should be ˜30 ug/mL in the sample, a 20× dilution was performed (Dilution Factor). (20 uL sample added to 380 μL PBS in a well). No lid was used on plate A. Samples were mixed by gentle pipetting up & down.
• 4. Two more plates, plates B & C were used. Using a multichannel pipettor, 60 μL of each standard 2 were pipetted into wells each (duplicate), and sample into 3 wells each (triplicate)
as §1

[3] = LNP zeta potential (ZetaSizer Pro); type: physicochemical; details: same LNPs; for Zeta Potential mV, pH 5: Table 4, pH 5; for Zeta Potential mV, pH 7: Table 4, pH 7
[4] = Accelerated oxidation with H2O2/Fe(III)Cl, main lipid peak by UHPLC-CAD; type: physicochemical; details: for % of parent lipid peak at time 0, 24 h / % of parent lipid peak at time 0, 48 h / % of parent lipid peak at time 0, 72 h: 1% H2O2, 100 μM Fe(III)Cl, 37° C.; for stability under accelerated oxidation with hydrogen peroxide: compared to counterparts with a single methylene separating the two olefins
Description: Individual lipid stocks (10 mM) were prepared in ethanol and stored at −20° C. […] Liposomal formulations based on AKG-UO-1 and 0-11769 ionizable cationic lipids (Table 5) were prepared by combining lipid mixtures of desired composition in 1 mL ethanol with 3 mL 6.25 mM sodium acetate, pH 5.0 at 6 mL/min on a NanoAssemblr (Precision Nanosystems). 3.6 mL of the mixture was retained, while the initial 0.35 mL of the mixture and final 0.05 mL were discarded. Ethanol was removed by buffer exchange into PBS, pH 7.4 by concentrating each liposome preparation using an Aminon-Ultra 4 centrifugal concentrator at 500 g for 10 min at 4° C. and diluting back to the original volume with PBS. This cycle was repeated multiple times until the ethanol concentration was <1%. Finally, liposomes were sterile filtered through 0.2 μm PES (Nalgene) syringe filters and size measured by a ZetaSizer (Malvern).
Aliquots of the liposomal formulations were stored at −80° C. and thawed before the experiment. A combined stock in water of 10% H2O2 (Sigma-Aldrich, cat #H1009) and 1 mM of Fe(III)Cl (Sigma-Aldrich, cat #372870) was freshly prepared prior to the treatment. To make 1% final concentration of H2O2 and 100 μM Fe(III)Cl, 10 μl of 10% H2O2/1 mM Fe(III)Cl stock was added to 90 μl of both liposomal formulations and individual lipids The liposomes and individual lipids were incubated with H2O2/Fe(III)Cl at 37° C. and then 5 μl from each sample was taken at different time points (0, 3, 24, 48 and 72 hours) and dissolved in 90 μl of MeOH for HPLC analysis. Degradation of the main lipid peak was analyzed using Thermo Scientific Vanquish Flex UHPLC occupied with Charged Aerosol Detector (CAD) and Thermo Scientific Accucore™ C18+ UHPLC column (L=50 mm, D=2.1 mm, Particle Size=1.5 μm).
The data are presented as a percentage of the main lipid peak measured at different time points relative to the lipid peak measured at time zero.

[5] = tested on: MutuDC1940 cells; experiment: Transfection efficiency of mCherry mRNA LNPs in murine dendritic cells; type: cell-based; details: LNPs 1 μg/mL, 24h
Description: A. Cell Propagation, Transfection, Harvesting and Staining Protocol
• 1. MutuDC1940 cells (ABM) were grown according to supplier's instructions in T75 flasks.
When required, they were plated at 180,000 cells/well into 24-well plate one day prior to transfection. • 2. LNPs were added in triplicate to each well at 1 μg/mL in 1 mL media and after 24h the cells were washed once with DPBS (VWR 02-0119-1000). • 3. 0.2 mL of DPBS (plus 5 mM EDTA, pH 7.4) was then added to facilitate detachment. • 4. The cells were placed at 37° C. for 3 min, until detached. • 5. 0.5 ml DPBS added to each well and the liquid transferred to a flow cytometry tube (Falcon 5 mL #352054) • 6. The tube was centrifuged at 1100 rpm for 3-5 min and the liquid poured off • 7. 100 μL of Zombie Violet (Biolegend) (diluted 1:500 in PBS) was added to each tube • 8. The tubes were gently tapped to resuspend cells and placed in the dark for 15 min at RT • 9. To the cells 0.5 mL of (paraformaldehyde 4% in PBS:DPBS 1:1) was added and the cells flicked gently to resuspend and put on ice for 30 min. Another 2 ml PBS was added. • 10. The cells were pelleted as above and resuspended in 0.5 mL DPBS with 5% BSA and placed in the fridge until needed. B. Cell Analysis • 1. Cells suspensions were analyzed by an Attune NxT flow cytometer using the VL1 and YL2 for live/dead and mCherry fluorescence signals respectively. Gating analysis was performed on FloJo software.

Row | Particle Size (nm) ([1]; Table 4) | Particle Size (nm) Post-Freeze/Thaw [1] | Encapsulation Efficiency (%) [2] | Zeta Potential mV, pH 5 [3] | Zeta Potential mV, pH 7 [3] | degradation after 48 hours of incubation with hydrogen peroxide [4] | % of parent lipid peak at time 0, 24 h ([4]; ICL lipid suspensions) | % of parent lipid peak at time 0, 48 h ([4]; ICL lipid suspensions) | % of parent lipid peak at time 0, 72 h ([4]; ICL lipid suspensions) | % of parent lipid peak at time 0, 72 h ([4]; Liposome preparations) | Particle Size (nm) ([1]; Table 3) | Polydispersity Index PDI ([1]; Table 3) | % Encapsulation ± SD [2] | stability under accelerated oxidation with hydrogen peroxide [4] | SMILES | fold higher mCherry expression than KC2 ([5]; relative to KC2 LNP) | fold higher mCherry expression than KC3 ([5]; relative to KC3 LNP) | fold higher mCherry expression than LNPs incorporating 0-11769 ([5]; relative to 0-11769 LNP)
1 | 77.6 nm | 111.5 nm | 64.9 ± 3.4% | 19.1 mV | 2.2 mV | – | – | – | – | – | – | – | – | – | CCCCCCCC/C=C\CCCCCCCC(=O)OC[C@H](CCN(C)C)OC(=O)CCCCCCC/C=C\CCCCCCCC [AKG-DM2-OA] | – | – | –
2 | 84.4 nm | 103.2 nm | 77.5 ± 0.9% | 28.0 mV | −0.9 mV | – | – | – | – | – | – | – | – | – | CCCCC/C=C\CCCC/C=C\CCCCC(=O)OC[C@H](CCN(CC)CC)OC(=O)CCCC/C=C\CCCC/C=C\CCCCC [AKG-UO1A, (S)-4-(diethylamino)butane-1,2-diyl (6Z,6′Z,12Z,12′Z)-bis(octadeca-6,12-dienoate)] | – | – | –
3 | 83.0 nm | 89.6 nm | 87.5 ± 2.7% | 17.1 mV | 4.1 mV | fully degraded | 31 ± 0.9% | 1 ± 0.2% | 0.3 ± 0.1% | 3.9±0.06% | – | – | – | – | CCCCC/C=C\C/C=C\CCCCCCCC(=O)OC[C@H](CCN(C)C)OC(=O)CCCCCCC/C=C\C/C=C\CCCCC [Compound O-11769, reference compound] | – | – | –
4 | 69.8 nm | 68.2 nm | 83.4 ± 7.7% | 10.2 mV | −0.7 mV | – | – | – | – | – | – | – | – | – | CCCCCCCC/C=C\CCCCCCCC(=O)OC[C@H](CN(C)C)OC(=O)CCCCCCC/C=C\CCCCCCCC [DODAP, reference compound] | – | – | –
5 | – | – | – | – | – | fully degraded | – | – | 0 ± 0.0% | – | 93.7 nm | 0.01 | 68.2 ± 3.7% | – | CCCCC/C=C\C/C=C\CCCCCCCCC1(CCCCCCCC/C=C\C/C=C\CCCCC)OCC(CCN(C)C)O1 (centres unmarked) [KC2, reference compound] | – | – | –
6 | – | – | – | – | – | – | – | – | – | – | 70.7 nm | 0.06 | 88.9 ± 1.6% | dramatically superior stability | CCCCC/C=C\CCCC/C=C\CCCCCC1(CCCCC/C=C\CCCC/C=C\CCCCC)OC[C@H](CCN(C)C)O1 [KC2-01, 2-((S)-2,2-di((6Z,12Z)-octadeca-6,12-dien-1-yl)-1,3-dioxolan-4-yl)-N,N-dimethylethan-1-amine] | 4.4 fold | – | –
7 | – | – | – | – | – | fully degraded | – | – | 0 ± 0.0% | – | 101.5 nm | 0.23 | 87.0 ± 2.3% | – | CCCCC/C=C\C/C=C\CCCCCCCCC1(CCCCCCCC/C=C\C/C=C\CCCCC)OCC(CCCN(C)C)O1 (centres unmarked) [KC3, reference compound] | – | – | –
8 | – | – | – | – | – | – | – | – | – | – | 91.6 nm | 0.03 | 88.9 ± 2.7% | dramatically superior stability | CCCCC/C=C\CCCC/C=C\CCCCCC1(CCCCC/C=C\CCCC/C=C\CCCCC)OC[C@H](CCCN(C)C)O1 [KC3-01, 3-((S)-2,2-di((6Z,12Z)-octadeca-6,12-dien-1-yl)-1,3-dioxolan-4-yl)-N,N-dimethylpropan-1-amine] | – | 3.4 fold | –
9 | 98.0 nm | 122.6 nm | 75.4 ± 2.2% | 21.9 mV | 2.3 mV | – | 78 ± 0.6% | 74 ± 0.1% | 65 ± 2.5% | 73±0.05% | – | – | – | dramatically superior stability | CCCCC/C=C\CCCC/C=C\CCCCC(=O)OC[C@H](CCN(C)C)OC(=O)CCCC/C=C\CCCC/C=C\CCCCC [UO-1, (S)-4-(dimethylamino)butane-1,2-diyl (6Z,6′Z,12Z,12′Z)-bis(octadeca-6,12-dienoate)] | – | – | 4.2 fold
